Source: PMC7170385, “The selenium-containing drug ebselen potently disrupts LEDGF/p75-HIV-1 integrase interaction by targeting LEDGF/p75” (Journal of Enzyme Inhibition and Medicinal Chemistry, 2020)
Like-named read-outs stand apart in the source and are kept apart here.

Columns and labels:
[1] = test system: LEDGF/p75-IN interaction; parameters: method as in PMID 21222490; conditions: cited from earlier work
[2] = test system: HIV-1; parameters: method as in PMID 26810656; conditions: previous study; read-out: 50% effective concentration (EC50), replication of HIV-1; cited from earlier work
[3] = target: Cryptosporidium parvum Inosine 5′-monophosphate dehydrogenase; parameters: method as in Sarwono et al.[54]; conditions: ref Sarwono et al.[54]; cited from earlier work
[4] = test system: Tumor marker endothelial 8 and protective antigen interaction; conditions: cited from earlier work
[5] = target: T1, LEDGF/p75 IBD-HIV-1 IN interaction (Homo sapiens, UniProt O75475); assay: HTRF-based LEDGF/p75 IBD-IN interaction assay
T1 sequence (O75475 347-429 limits assumed): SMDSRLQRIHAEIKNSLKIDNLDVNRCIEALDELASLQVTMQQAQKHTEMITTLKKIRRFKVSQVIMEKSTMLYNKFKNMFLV

[6] = test system: Pseudomonas aeruginosa Diguanylate Cyclases; parameters: method as in Lieberman et al.[55]; conditions: ref Lieberman et al.[55]; cited from earlier work
[7] = test system: C-terminal domain of HIV-1 capsid; parameters: method as in Thenin-Houssier et al.[39]; conditions: ref Thenin-Houssier et al.[39]; cited from earlier work
[8] = target: Cryptosporidium parvum glucose-6-phosphate isomerase; parameters: method as in Eltahan et al.[46]; conditions: ref Eltahan et al.[46]; cited from earlier work
[9] = target: LEDGF/p75 (Homo sapiens, UniProt O75475); assay: Biolayer interferometry (BLI) binding assay
Protocol: A protein binding assay was performed by biolayer interferometry (BLI) as described previously. First, purified recombinant LEDGF/p75 protein was biotinylated using the Thermo EZLink long-chain biotinylation reagent. Then, biolayer interferometry (BLI) assay was performed using an OctetRED96 instrument from PALL/ForteBio. All assays were run at 30 °C with continuous 1000 rpm shaking. PBS with 0.01% Tween-20 was used as the assay buffer. Briefly, biotinylated LEDGF/p75 protein was tethered on Super Streptavidin (SSA) biosensors (ForteBio) by dipping sensors into 200 µl per well 50 µg/ml protein solutions. The measurement processes were all under computer control. Programme procedures were established as follows: For the initial step, biosensors were washed in assay buffer for 300 s to form a baseline; the biosensors labelled with biotin-LEDGF/p75 were exposed to 100 µM compounds for association, and were monitored for 600 s; and then, the biosensors were moved back into assay buffer to disassociate for another 1800s. Data were fit globally and generated automatically by Octet User software (version 9.0.0.10; Fortebio).

[10] = test system: Hepatitis C Virus NS3 Helicase-Nucleic Acid interaction; parameters: method as in Mukherjee et al.[53]; conditions: ref Mukherjee et al.[53], cited from earlier work
[11] = test system: Escherichia coli thioredoxin reductase; parameters: method as in Lu et al.[48]; conditions: cell marked (Ki); ref Lu et al.[48]; cited from earlier work
[12] = parameters: method as in PMID 26810656; conditions: previous study; read-out: half-maximal cytotoxic concentration (CC50); cited from earlier work
[13] = target: Trypanosoma brucei hexokinase 1; parameters: method as in Gordhan et al.[47]; conditions: ref Gordhan et al.[47]; cited from earlier work
[14] = target: New Delhi metallo-β-lactamase; parameters: method as in Chiou et al.[51]; conditions: ref Chiou et al.[51]; cited from earlier work
[15] = test system: Mycobacterium tuberculosis antigen 85; parameters: method as in Favrot et al.[52]; conditions: ref Favrot et al.[52]; cited from earlier work
[16] = test system: Clostridium difficile cysteine protease domain; parameters: method as in Bender et al.[50]; conditions: ref Bender et al.[50]; cited from earlier work
[17] = target: Bacillus anthracis thioredoxin reductase; conditions: ref Gustafsson et al.[49]; cited from earlier work

LEDGF/p75, sequence (O75475 whole entry): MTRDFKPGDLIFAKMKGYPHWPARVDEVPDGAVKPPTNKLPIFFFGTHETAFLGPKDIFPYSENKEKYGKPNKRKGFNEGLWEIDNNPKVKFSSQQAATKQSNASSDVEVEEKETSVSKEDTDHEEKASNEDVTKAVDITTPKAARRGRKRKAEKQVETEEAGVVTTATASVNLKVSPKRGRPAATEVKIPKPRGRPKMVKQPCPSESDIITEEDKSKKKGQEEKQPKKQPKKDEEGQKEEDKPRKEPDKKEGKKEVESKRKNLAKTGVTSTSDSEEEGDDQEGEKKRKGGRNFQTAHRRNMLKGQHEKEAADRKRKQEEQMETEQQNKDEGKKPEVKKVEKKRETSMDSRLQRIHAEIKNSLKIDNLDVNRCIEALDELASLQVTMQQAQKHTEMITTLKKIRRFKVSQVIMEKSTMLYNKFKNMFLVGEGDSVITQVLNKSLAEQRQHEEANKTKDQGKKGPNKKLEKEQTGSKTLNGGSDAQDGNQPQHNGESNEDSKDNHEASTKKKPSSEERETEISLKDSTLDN

Question: For `O[C@@H](CS)[C@@H](O)CS` (racemic) [DTT, dithiothreitol], which “Inhibitory effect of DTT on LEDGF/p75-IN interaction” value ([1]; at 50 µM) is on record?
Answer: negligible

Question: And the IC50 [1]?
Answer: 4500 µM

Question: Which EC50 [2] does the source give for `O=c1c2ccccc2[se]n1-c1ccccc1` [Compound 1, 2-phenyl-1,2-benzisoselenazol-3-one] here?
Answer: 1.99 µM

Question: And the IC50 [3]?
Answer: 0.71 µM

Question: What about the IC50 [4] of the same compound?
Answer: 1.7 µM

Question: And the IC50 [5]?
Answer: 7700 nM

Question: What about the “HTRF signal when IBD was pre-incubated with compound” value ([5]; IBD pre-incubated with ebselen) of the same compound?
Answer: dramatical decrease

Question: What about the “HTRF signal when IN was pre-incubated with compound” value ([5]; IN pre-incubated with ebselen) of the same compound?
Answer: no obvious signal change

Question: And the “Inhibitory effect on LEDGF/p75 IBD-IN interaction in the presence of DTT” value ([5]; in the presence of 50 µM dithiothreitol (DTT))?
Answer: completely abolished

Question: What about the “Time-dependent inhibition (change of affinity over time)” value ([5]; over 1 h) of the same compound?
Answer: increase in its affinity

Question: And the IC50 [6]?
Answer: 5 µM

Question: What about the IC50 [7] of the same compound?
Answer: 0.047 µM

Question: And the IC50 [8]?
Answer: 8.33 µM

Question: What about the Kd ([9]; BLI Octet Red, biotinylated LEDGF/p75, 30 °C) of the same compound?
Answer: 0.0133 µM

Question: And the “Dissociation from LEDGF/p75” value ([9]; BLI, dissociation in assay buffer 1800 s)?
Answer: do not show obvious dissociation

Question: What about the IC50 ([10]; first value of cell 1.1/0.9, difference not explained, read-out: IC50 (first of two values printed)) of the same compound?
Answer: 1.1 µM

Question: What about the IC50 ([10]; second value of cell 1.1/0.9, difference not explained, read-out: IC50 (second of two values printed)) of the same compound?
Answer: 0.9 µM

Question: And the Ki [11]?
Answer: 0.52 µM

Question: And the CC50 [12]?
Answer: 25.4 µM

Question: What about the IC50 [13] of the same compound?
Answer: 0.05 µM

Question: What about the IC50 [14] of the same compound?
Answer: 0.38 µM

Question: What about the IC50 [15] of the same compound?
Answer: 0.063 µM

Question: And the IC50 [16]?
Answer: 0.0069 µM

Question: And the IC50 [17]?
Answer: 1 µM

Question: With `COc1cc(/C=C/C(=O)CC(=O)/C=C/c2ccc(O)c(OC)c2)ccc1O` [Compound 2, Curcumin] as the compound, how does the IC50 [5] read?
Answer: 14500 nM

Question: Which IC50 [5] does the source give for `O=S(=O)(c1c(O)c(Cl)cc(Cl)c1Cl)c1c(O)c(Cl)cc(Cl)c1Cl` [Compound 3, p38 MAP kinase inhibitor IV] here?
Answer: 117000 nM

Question: Which IC50 [5] does the source give for `CCN(CC)C(=S)SSC(=S)N(CC)CC` [Disulfiram] here?
Answer: 23200 nM

Question: For `NC(=O)CI` [Iodoacetamide], which IC50 ([5]; HTRF, 12-point dose-response 0.024 to 50 µM, His6-HIV-1 IN 50 nM, GST-IBD) is on record?
Answer: > 1e+07 nM

Question: Which IC50 [5] does the source give for `CCN1C(=O)C=CC1=O` [N-Ethylmaleimide] here?
Answer: 566000 nM
